# Read-outs that look alike come from different tables or passages of the source.
# How the values were obtained:
# [1] = tested on: B. subtilis ATCC 6623 (Bs); experiment: Minimal inhibitory concentration (MIC) assay; type: cell-based; conditions: Bacillus subtilis
# Description: (§1) Minimal inhibitory concentration (MIC) assay The standard microdilution method recommended by the Clinical and Laboratory Standards Institute (CLSI) was used to determine the MIC of the antibiotics. The starting concentration of compounds was 50 μg/ml and 2-fold dilution was done down the 96 honeycomb well plate column. The MIC assay was conducted in triplicates.
# [2] = tested on: Enterococcus faecalis ATCC 29212 (Es12); experiment: Minimal inhibitory concentration (MIC) assay; type: cell-based
# Description: as §1
# [3] = tested on: Enterococcus faecium ATCC 700221 (Em21); experiment: Minimal inhibitory concentration (MIC) assay; type: cell-based; conditions: Enterococcus faecium
# Description: as §1
# [4] = tested on: S. aureus ATCC 25923 (Sa23); experiment: Minimal inhibitory concentration (MIC) assay; type: cell-based; conditions: Staphylococcus aureus
# Description: as §1
# [5] = tested on: S. aureus ATCC 33591 (Sa91); experiment: Minimal inhibitory concentration (MIC) assay; type: cell-based; conditions: Staphylococcus aureus
# Description: as §1
# [6] = tested on: S. aureus ATCC 33592 (Sa92); experiment: Minimal inhibitory concentration (MIC) assay; type: cell-based; conditions: Staphylococcus aureus
# Description: as §1
# [7] = tested on: S. aureus ATCC 700699 (Sa99); experiment: Minimal inhibitory concentration (MIC) assay; type: cell-based; conditions: Staphylococcus aureus
# Description: as §1
# [8] = tested on: S. aureus BAA-2312 (Sa12); experiment: Minimal inhibitory concentration (MIC) assay; type: cell-based; conditions: Staphylococcus aureus
# Description: as §1
# [9] = tested on: S. epidermidis 700296 (Se); experiment: Minimal inhibitory concentration (MIC) assay; type: cell-based; conditions: Staphylococcus epidermidis, read-out: Antimicrobial activity (MIC) Se
# Description: as §1
# S. aureus strains = experiment: MIC, summary over S. aureus strains; type: cell-based; conditions: two MRSA strains
# Description: as §1
# MRSA persisters = experiment: Persister Cell Killing Assay; conditions: after 4 hrs exposure; 128×MIC
# Description: A persister cell killing assay was performed following the methodology described by Kim et. al. with some modifications.^28 S. aureus strain was grown to stationary phase in CAMHB medium by shaking at 200 rpm overnight at 35° C. An aliquot of stationary phase culture (1 ml) was washed thrice with 1×PBS by centrifugation. After washing, the cells were diluted to ˜5×10^8 CFU/ml (confirmed by plate count). Diluted persister cells (2 ml) plus antibiotics at the desired concentration were incubated in sterile 10×75 mm plastic culture tubes at 35° C. with shaking at 200 rpm. At specific times, 400 μl aliquots were placed into microcentrifuge tubes and the cells washed and serially diluted in PBS. The diluted sample was plated on TSA agar plate with 5% sheep blood by the 6×6 drop plate method. Plates were incubated for 18-20 hours at 35° C., and then colonies were counted to calculate concentrations in CFU/ml. The experiment was performed in triplicates.
# [10] = tested on: S. aureus ATCC 700699 and S. aureus ATCC 33591; experiment: Time-Kill Assay; type: cell-based; conditions: 4×MIC
# Description: Time kill assay for test antibiotics against S. aureus ATCC 700699 and S. aureus ATCC 33591 strains was conducted using procedures published previously.^26 Briefly, a log-phase bacterial culture was diluted to ˜5×10^6 CFU/ml in warm sterile CAMHB broth and was exposed to antibiotics at 4×MIC concentration then incubated at 35° C. Samples of 20 μl were taken every 2 hours, diluted 10 fold to 10^−5, and the 6×6 drop plate method was performed to determine viable CFU/ml after 18-24 hours of incubation at 35° C. Each antibiotic time-kill assay was conducted in triplicate.
# [11] = ATCC6623, B. subtilis ATCC 6623, read-out: Antimicrobial activity (MIC) Bs
# [12] = ATCC29212, Enterococcus faecalis ATCC 29212, read-out: Antimicrobial activity (MIC) Es12
# [13] = ATCC700221, Enterococcus faecium ATCC 700221, read-out: Antimicrobial activity (MIC) Em21
# [14] = ATCC25923, S. aureus ATCC 25923, antibiotic susceptible strain, read-out: Antimicrobial activity (MIC) Sa23
# [15] = ATCC33591, S. aureus ATCC 33591, antibiotic-resistant strain, read-out: Antimicrobial activity (MIC) Sa91
# [16] = ATCC33592, S. aureus ATCC 33592, antibiotic-resistant strain, read-out: Antimicrobial activity (MIC) Sa92
# [17] = ATCC700699, S. aureus ATCC 700699, antibiotic-resistant strain, read-out: Antimicrobial activity (MIC) Sa99
# [18] = BAA2312, S. aureus BAA-2312, antibiotic-resistant strain, read-out: Antimicrobial activity (MIC) Sa12
# [19] = ATCC6623, read-out: Antimicrobial activity (MIC) Bs
# [20] = Enterococcus faecalis, ATCC29212, read-out: Antimicrobial activity (MIC) Es12
# [21] = ATCC700221, read-out: Antimicrobial activity (MIC) Em21
# [22] = ATCC25923, read-out: Antimicrobial activity (MIC) Sa23
# [23] = ATCC33591, read-out: Antimicrobial activity (MIC) Sa91
# [24] = ATCC33592, read-out: Antimicrobial activity (MIC) Sa92
# [25] = ATCC700699, read-out: Antimicrobial activity (MIC) Sa99
# [26] = BAA2312, read-out: Antimicrobial activity (MIC) Sa12
Molecule,"MIC [1, 11]","MIC [2, 12]","MIC [3, 13]","MIC [4, 14]","MIC [5, 15]","MIC [6, 16]","MIC [7, 17]","MIC [8, 18]",MIC ([9]; S. epidermidis 700296),further results
"C=C(C)[C@@H]1CC=C2c3sc(-c4ccc(Cl)cc4)nc3C[C@@H](C)[C@]2(C)C1 [Compound 19, (5R,5aS,7R)-2-(4-chlorophenyl)-7-isopropenyl-5,5a-dimethyl-5,6,7,8-tetrahydro-4H-benzo[g][1,3]benzothiazole]",12.5 µg/mL,> 100 µg/mL,> 100 µg/mL,25 µg/mL,50 µg/mL,> 100 µg/mL,25 µg/mL,25 µg/mL,50 µg/mL,
"C=C(C)[C@@H]1CC=C2c3sc(-c4ccccc4O)nc3C[C@@H](C)[C@]2(C)C1 [Compound 13, 2-[(5R,5aS,7R)-7-isopropenyl-5,5a-dimethyl-5,6,7,8-tetrahydro-4H-benzo[g][1,3]benzothiazol-2-yl]phenol]",50 µg/mL,> 100 µg/mL,> 100 µg/mL,50 µg/mL,100 µg/mL,> 100 µg/mL,> 100 µg/mL,100 µg/mL,> 100 µg/mL,
"C=C(C)[C@@H]1CC=C2c3sc(-c4ccc5c(c4)OCO5)nc3C[C@@H](C)[C@]2(C)C1 [Compound 17, (5R,5aS,7R)-2-(1,3-benzodioxol-5-yl)-7-isopropenyl-5,5a-dimethyl-5,6,7,8-tetrahydro-4H-benzo[g][1,3]benzothiazole]",12.5 µg/mL,> 100 µg/mL,> 100 µg/mL,> 100 µg/mL,25 µg/mL,> 100 µg/mL,> 100 µg/mL,> 100 µg/mL,25 µg/mL,activity against MRSA strains (S. aureus strains): moderate activity
"C=C(C)[C@@H]1CC=C2c3sc(-c4ccc(F)c(F)c4)nc3C[C@@H](C)[C@]2(C)C1 [Compound 21, (5R,5aS,7R)-2-(3,4-difluorophenyl)-7-isopropenyl-5,5a-dimethyl-5,6,7,8-tetrahydro-4H-benzo[g][1,3]benzothiazole]",> 100 µg/mL,> 100 µg/mL,> 100 µg/mL,100 µg/mL,> 100 µg/mL,1.56 µg/mL,> 100 µg/mL,> 100 µg/mL,> 100 µg/mL,
"C=C(C)[C@@H]1CC=C2c3sc(Cc4ccccc4C)nc3C[C@@H](C)[C@]2(C)C1 [Compound 4, (5R,5aS,7R)-7-isopropenyl-5,5a-dimethyl-2-(o-tolylmethyl)-5,6,7,8-tetrahydro-4H-benzo[g][1,3]benzothiazole]",,,,,,,,,,"MIC [1, 19]: > 100 µg/mL; MIC [2, 20]: > 100 µg/mL; MIC [3, 21]: > 100 µg/mL; MIC [4, 22]: > 100 µg/mL; MIC [5, 23]: > 100 µg/mL; MIC [6, 24]: > 100 µg/mL; MIC [7, 25]: > 100 µg/mL; MIC [8, 26]: > 100 µg/mL; MIC [9]: > 100 µg/mL"
"C=C(C)[C@@H]1CC=C2c3sc(-c4ccc(Br)cc4)nc3C[C@@H](C)[C@]2(C)C1 [Compound 20, (5R,5aS,7R)-2-(4-bromophenyl)-7-isopropenyl-5,5a-dimethyl-5,6,7,8-tetrahydro-4H-benzo[g][1,3]benzothiazole]",> 100 µg/mL,> 100 µg/mL,> 100 µg/mL,> 100 µg/mL,50 µg/mL,> 100 µg/mL,> 100 µg/mL,> 100 µg/mL,> 100 µg/mL,
"C=C(C)[C@@H]1CC=C2c3sc(Cc4ccccc4)nc3C[C@@H](C)[C@]2(C)C1 [Compound 3, (5R,5aS,7R)-2-benzyl-7-isopropenyl-5,5a-dimethyl-5,6,7,8-tetrahydro-4H-benzo[g][1,3]benzothiazole]",> 100 µg/mL,> 100 µg/mL,> 100 µg/mL,> 100 µg/mL,> 100 µg/mL,> 100 µg/mL,> 100 µg/mL,> 100 µg/mL,> 100 µg/mL,
gentamycin [reference compound],,,,,,,,,,CFU count (MRSA persisters): 2.2×10^8 CFU
"C=C(C)[C@@H]1CC=C2c3sc(-c4cccc(OCC)c4)nc3C[C@@H](C)[C@]2(C)C1 [Compound 11, (5R,5aS,7R)-2-(3-ethoxyphenyl)-7-isopropenyl-5,5a-dimethyl-5,6,7,8-tetrahydro-4H-benzo[g][1,3]benzothiazole]",> 100 µg/mL,> 100 µg/mL,> 100 µg/mL,50 µg/mL,> 100 µg/mL,> 100 µg/mL,> 100 µg/mL,> 100 µg/mL,> 100 µg/mL,
"C=C(C)[C@@H]1CC=C2c3sc(-c4cccc(O)c4)nc3C[C@@H](C)[C@]2(C)C1 [Compound 14, 3-[(5R,5aS,7R)-7-isopropenyl-5,5a-dimethyl-5,6,7,8-tetrahydro-4H-benzo[g][1,3]benzothiazol-2-yl]phenol]",> 100 µg/mL,> 100 µg/mL,> 100 µg/mL,50 µg/mL,> 100 µg/mL,> 100 µg/mL,> 100 µg/mL,> 100 µg/mL,> 100 µg/mL,
"CN[C@H](CC(C)C)C(=O)N[C@H]1C(=O)N[C@@H](CC(N)=O)C(=O)N[C@H]2C(=O)N[C@H]3C(=O)N[C@H](C(=O)N[C@H](C(=O)O)c4cc(O)cc(O)c4-c4cc3ccc4O)[C@H](O)c3ccc(c(Cl)c3)Oc3cc2cc(c3O[C@@H]2O[C@H](CO)[C@@H](O)[C@H](O)[C@H]2O[C@H]2C[C@](C)(N)[C@H](O)[C@H](C)O2)Oc2ccc(cc2Cl)[C@H]1O [VC, vancomycin, reference compound]",,,,,,,,,,"MIC [1, 19]: 0.39 µg/mL; MIC [2, 20]: 3.12 µg/mL; MIC [3, 21]: > 100 µg/mL; MIC [4, 22]: 3.12 µg/mL; MIC [5, 23]: 1.56 µg/mL; MIC [6, 24]: 1.56 µg/mL; MIC [7, 25]: 0.78 µg/mL; MIC [8, 26]: 0.78 µg/mL; MIC [9]: 1.56 µg/mL; eliminated bacteria at [10]: 10 h; CFU count (MRSA persisters): 2.4×10^7 CFU"
